Data on 46 compounds can be found in patent US11155567B2, “Sting agonist compounds and methods of use” (Mersana Therapeutics, Inc., priority 2019, dated 2021).

T1 sequence (Q86WV6 whole entry R71H/G230A/H232R/R293Q): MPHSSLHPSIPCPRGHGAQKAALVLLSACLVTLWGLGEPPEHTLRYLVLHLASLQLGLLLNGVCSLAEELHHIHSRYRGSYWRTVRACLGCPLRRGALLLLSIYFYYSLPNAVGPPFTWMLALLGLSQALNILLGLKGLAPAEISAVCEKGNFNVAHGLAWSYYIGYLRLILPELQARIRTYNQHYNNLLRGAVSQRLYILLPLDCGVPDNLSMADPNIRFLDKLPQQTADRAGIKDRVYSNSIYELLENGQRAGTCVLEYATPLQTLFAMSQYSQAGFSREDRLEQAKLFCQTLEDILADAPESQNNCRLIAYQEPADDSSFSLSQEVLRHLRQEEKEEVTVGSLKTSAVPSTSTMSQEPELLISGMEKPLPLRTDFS

This assay addresses T1, Human STING (Homo sapiens, UniProt Q86WV6, G230A/H232R/R293Q/R71H).
T1 construct: host or cells: THP1-Dual cells, digitonin-permeabilized
Briefly: Activation of human STING signaling in permeabilized THP1 cells, IRF3 induction. The format is cell-based. The note with it: THP1-Dual cells permeabilized with digitonin buffer 30 minutes on ice, then 24 h in RPMI media. Here is the method: To evaluate IRF3 reporter levels, cell culture supernatant (20 μl) from each incubated sample was added to QUANTI-Luc™ assay solution (Invivogen, 50 μl), and the luminescence was measured with a SpectraMax M3 spectrophotometer (Molecular Devices).
4×10^5 THP1-Dual™ cells (NF-κB-SEAP and IRF-Lucia luciferase Reporter Monocytes, Invivogen) were incubated with test Compounds in a 5-fold titration steps from […] in permeabilized buffer (50 mM HEPES pH 7.0, 100 mM KCl, 3 mM MgCl2, 85 mM sucrose, 0.2% BSA, 1 mM ATP, 0.1 mM GTP, 0.1 mM TTP, 1 μg/ml digitonin) for 30 minutes on ice. Cells were then washed and incubated in a fresh RPMI media with 10% FBS at 37° C. with 5% CO2 for 24 h. Cell culture supernatants from each sample were collected and NFkB and IRF3 were evaluated as above. Table 3 provides the results for IRF3 induction (“A” means <1 μM; “B” means ≥1 μM and <50 μM; “C” means ≥50 μM).
Take `CCc1nc(C)oc1C(=O)Nc1nc2cc(C(N)=O)cc(OC)c2n1C/C=C/Cn1c(NC(=O)c2sc(C)nc2CC)nc2cc(C(N)=O)cc(OCCCC(=O)O)c21` [Compound 149]: the half-maximal effective concentration (EC50) (commonly the concentration at which the effect is half-maximal) is below 1000 nM.
Under `CCc1nc(C)oc1C(=O)/N=c1\sc2cc(C(N)=O)cnc2n1C/C=C/Cn1c(NC(=O)c2oc(C)nc2CC)nc2cc(C(N)=O)cc(OCCCC(=O)O)c21` [Compound 155] stands below 1000 nM; under `CCc1nc(C)oc1C(=O)Nc1nc2cc(N)cc(OC)c2n1C/C=C/Cn1c(NC(=O)c2oc(C)nc2CC)nc2cc(C(N)=O)cc(OCCCO)c21` [Compound 135], 1000 to 50000 nM.
Under `CCn1nc(C)cc1C(=O)/N=c1\sc2cc(C(N)=O)cnc2n1C/C=C/Cn1c(NC(=O)c2cc(C)nn2CC)nc2cc(C(N)=O)cc(OCCCO)c21` [compound 110] stands below 1000 nM.
`COc1cc(C(N)=O)cc2nc(NC(=O)c3cnc(C)n3C)n(C/C=C/Cn3c(NC(=O)c4cnc(C)n4C)nc4cc(C(N)=O)cc(OCCCO)c43)c12` [compound 16] came in with an EC50 of at least 50000 nM.
`CCc1nc(C)oc1C(=O)Nc1nc2cc(C(N)=O)cc(O)c2n1C/C=C/Cn1c(NC(=O)c2oc(C)nc2CC)nc2cc(C(N)=O)cc(O)c21` [Compound 139] yielded a 50% effective concentration (EC50) of at least 50000 nM.
Under `CCn1nc(C)cc1C(=O)Nc1nc2cc(N)cnc2n1C/C=C/Cn1c(NC(=O)c2cc(C)nn2CC)nc2cc(C(N)=O)cc(OC)c21` [Compound 134] stands below 1000 nM.
Under `CCc1nc(C)oc1C(=O)Nc1nc2cc(C(N)=O)cc(OC)c2n1C/C=C/Cn1c(NC(=O)c2oc(C)nc2CC)nc2cc(C(N)=O)cc(OCCCC(=O)O)c21` [compound 19] stands below 1000 nM; under `CCn1nc(C)cc1C(=O)Nc1nc2cc(CN(C)C)cnc2n1C/C=C/Cn1c(NC(=O)c2cc(C)nn2CC)nc2cc(C(N)=O)cc(OC)c21` [Compound 132], 1000 to 50000 nM; under `COc1cc(C(N)=O)cc2nc(NC(=O)c3cc(C)no3)n(C/C=C/Cn3c(NC(=O)c4cc(C)no4)nc4cc(C(N)=O)cc(OCCCO)c43)c12` [compound 12], 1000 to 50000 nM.
Under `CCc1nc(C)oc1C(=O)Nc1nc2cc(C(N)=O)cnc2n1C/C=C/Cn1c(NC(=O)c2sc(C)nc2CC)nc2cc(C(N)=O)cc(OCCCO)c21` [Compound 143] stands below 1000 nM.
On to `NC(=O)c1ccc2c(c1)nc(NC(=O)c1cocn1)n2C/C=C/Cn1c(NC(=O)c2cocn2)nc2cc(C(N)=O)cc(OCCCO)c21` [compound 28], for which the EC50 was at least 50000 nM.
Under `CCc1nc(C)sc1C(=O)Nc1nc2cc(C(N)=O)cc(OCCCO)c2n1C/C=C/Cn1c(NC(=O)c2cc(C)nn2CC)nc2cc(C(N)=O)ccc21` [compound 52] stands below 1000 nM; under `CCc1nc(C)sc1C(=O)/N=c1\sc2cc(C(N)=O)cnc2n1C/C=C/Cn1c(NC(=O)c2sc(C)nc2CC)nc2cc(C(N)=O)cc(OCCCO)c21` [Compound 145], at least 50000 nM; under `CCc1nc(C)oc1C(=O)Nc1nc2cc(NC(C)=O)cc(OC)c2n1C/C=C/Cn1c(NC(=O)c2oc(C)nc2CC)nc2cc(C(N)=O)cc(OCCCO)c21` [Compound 131], 1000 to 50000 nM.
Under `COc1cc(C(N)=O)cc2nc(NC(=O)c3cc4ncccc4o3)n(C/C=C/Cn3c(NC(=O)c4cc5ncccc5o4)nc4cc(C(N)=O)cc(OCCCO)c43)c12` [compound 14] stands at least 50000 nM.
On to `Cn1nncc1C(=O)Nc1nc2cc(C(N)=O)ccc2n1C/C=C/Cn1c(NC(=O)c2cnnn2C)nc2cc(C(N)=O)cc(OCCCO)c21` [compound 27], for which the concentration giving a half-maximal response (EC50) is at least 50000 nM.
Under `CCc1nc(C)oc1C(=O)Nc1nc2cc(C(N)=O)cnc2n1C/C=C/Cn1c(NC(=O)c2oc(C)nc2CC)nc2cc(C(N)=O)cc(Br)c21` [compound 90] stands below 1000 nM.
Regarding `CCn1nc(C)cc1C(=O)Nc1nc2cccnc2n1C/C=C/Cn1c(NC(=O)c2cc(C)nn2CC)nc2cc(C(N)=O)cc(OCCCO)c21` [Compound 114], the EC50 was in the range of 1000 to 50000 nM.
Under `CCn1nc(C)cc1C(=O)Nc1nc2cc(CN(C)C)cnc2n1C/C=C/Cn1c(NC(=O)c2cc(C)nn2CC)nc2cc(C(N)=O)cc(OCCCO)c21` [Compound 125] stands below 1000 nM; under `CCc1nn(C)cc1C(=O)Nc1nc2cc(C(N)=O)cc(OCCCO)c2n1C/C=C/Cn1c(NC(=O)c2cc(C)nn2CC)nc2cc(C(N)=O)cc(OC)c21` [compound 39], below 1000 nM.
In turn, `CCc1ncoc1C(=O)/N=c1\sc2cc(C(N)=O)cc(OC)c2n1C/C=C/Cn1c(NC(=O)c2ocnc2CC)nc2cc(C(N)=O)cc(OCCCO)c21` [compound 64] returned an EC50 of at least 50000 nM.
As for `CCn1nc(C)cc1C(=O)Nc1nc2cc(C(N)=O)cnc2n1C/C=C/Cn1c(NC(=O)c2cc(C)nn2CC)nc2cc(C(N)=O)cnc21` [compound 84], the EC50 was below 1000 nM.
Under `CCc1nc(C)sc1C(=O)Nc1nc2cc(C(N)=O)cc(OCCCO)c2n1C/C=C/Cn1c(NC(=O)c2cc(C)nn2CC)nc2cc(C(N)=O)cc(OC)c21` [compound 38] stands below 1000 nM.
On to `CCn1nc(C)cc1C(=O)Nc1nc2cc(C(N)=O)cnc2n1C/C=C/Cn1c(NC(=O)c2cc(C)nn2CC)nc2cc(C(N)=O)cc(Br)c21` [compound 89], for which the EC50 was below 1000 nM.
The compound `CCc1nc(C)oc1C(=O)Nc1nc2cc(C(N)=O)cnc2n1C/C=C/Cn1c(NC(=O)c2oc(C)nc2CC)nc2cc(C(N)=O)cnc21` [compound 85] had an EC50 of 1000 to 50000 nM.
With `CCn1nc(C)cc1C(=O)Nc1nc2cc(CNC(C)=O)cnc2n1C/C=C/Cn1c(NC(=O)c2cc(C)nn2CC)nc2cc(C(N)=O)cc(OC)c21` [Compound 137], the EC50 was at least 50000 nM.
Under `CCc1nc(C)oc1C(=O)Nc1nc2cc(C(N)=O)cnc2n1C/C=C/Cn1c(NC(=O)c2oc(C)nc2CC)nc2cc(C(N)=O)cc(OCCCN)c21` [compound 96] stands below 1000 nM; under `CCc1nc(C)sc1C(=O)Nc1nc2cc(C(N)=O)cc(OC)c2n1C/C=C/Cn1c(NC(=O)c2sc(C)nc2CC)nc2cc(C(N)=O)cc(OCCCO)c21` [compound 10], below 1000 nM.
Under `CCc1nn(C)cc1C(=O)Nc1nc2cc(C(N)=O)cc(OC)c2n1C/C=C/Cn1c(NC(=O)c2cn(C)nc2CC)nc2cc(C(N)=O)cc(OCCCO)c21` [compound 11] stands 1000 to 50000 nM; under `CCc1nc(C)oc1C(=O)Nc1nc2cc(C(N)=O)cc(OC)c2n1C/C=C/Cn1c(NC(=O)c2cnc(C)o2)nc2cc(C(N)=O)cc(OCCCO)c21` [Compound 136], at least 50000 nM.
Under `COc1cc(C(N)=O)cc2nc(NC(=O)c3nccn3C(C)C)n(C/C=C/Cn3c(NC(=O)c4nccn4C(C)C)nc4cc(C(N)=O)cc(OCCCO)c43)c12` [compound 15] stands at least 50000 nM; under `COc1cc(C(N)=O)cc2nc(NC(=O)c3cnc(C(F)(F)F)s3)n(C/C=C/Cn3c(NC(=O)c4cnc(C(F)(F)F)s4)nc4cc(C(N)=O)cc(OCCCO)c43)c12` [compound 17], at least 50000 nM; under `CCc1nc(C)oc1C(=O)Nc1nc2cc(C(N)=O)cc(OC)c2n1C/C=C/Cn1c(NC(=O)c2cnco2)nc2cc(C(N)=O)cc(OCCCO)c21` [Compound 138], at least 50000 nM.
`CCc1nc(C)sc1C(=O)Nc1nc2cc(C(N)=O)cnc2n1C/C=C/Cn1c(NC(=O)c2sc(C)nc2CC)nc2cc(C(N)=O)cc(OCCCO)c21` [Compound 144] returned an EC50 of at least 50000 nM.
Under `CCc1nc(C)oc1C(=O)/N=c1\sc2cc(C(N)=O)cc(OC)c2n1C/C=C/Cn1c(NC(=O)c2sc(C)nc2CC)nc2cc(C(N)=O)cc(OCCCO)c21` [compound 70] stands at least 50000 nM; under `CCc1nc(C)oc1C(=O)Nc1nc2cc(C(N)=O)cc(OCCCC(=O)O)c2n1C/C=C/Cn1/c(=N/C(=O)c2cc(C)nn2CC)sc2cc(C(N)=O)cc(OC)c21` [Compound 150], below 1000 nM; under `CCn1nc(C)cc1C(=O)/N=c1\sc2cc(C(=O)OC)cc(OC)c2n1C/C=C/Cn1c(NC(=O)c2cc(C)nn2CC)nc2cc(C(N)=O)cc(OCCCO)c21` [Compound 115], below 1000 nM.
On to `CCc1nc(C)oc1C(=O)Nc1nc2cc(C(N)=O)cc(OC)c2n1C/C=C/Cn1c(NC(=O)c2sc(C)nc2CC)nc2cc(C(N)=O)cc(OCCCO)c21` [compound 40], for which the EC50 is below 1000 nM.
Under `CCc1nc(C)n(C)c1C(=O)Nc1nc2cc(C(N)=O)cc(OCCCO)c2n1C/C=C/Cn1c(NC(=O)c2cc(C)nn2CC)nc2cc(C(N)=O)cc(OC)c21` [compound 41] stands at least 50000 nM.
As for `CCc1nc(C)oc1C(=O)Nc1nc2cc(C(N)=O)cc(OCCCO)c2n1C/C=C/Cn1c(NC(=O)c2cc(C)nn2CC)nc2cc(C(N)=O)ccc21` [compound 51], the EC50 was below 1000 nM.
The compound `CCc1nc(C)oc1C(=O)Nc1nc2cc(C(N)=O)cc(OCCCO)c2n1C/C=C/Cn1c(NC(=O)c2cc(C)nn2CC)nc2cc(C(N)=O)cc(OC)c21` [compound 36] displayed a half-maximal effective concentration (EC50) below 1000 nM.
Compound `COc1cc(C(N)=O)cc2nc(NC(=O)c3nc(C)oc3C)n(C/C=C/Cn3c(NC(=O)c4nc(C)oc4C)nc4cc(C(N)=O)cc(OCCCO)c43)c12` [compound 13] had an EC50 of at least 50000 nM.
Regarding `CCc1nc(C)oc1C(=O)Nc1nc2cc(C(N)=O)cc(OCCCO)c2n1C/C=C/Cn1c(NC(=O)c2cc(C)nn2CC)nc2cc(C(N)=O)cnc21` [Compound 111], the EC50 is below 1000 nM.
Compound `CCn1nc(C)cc1C(=O)Nc1nc2cc(CNC(C)=O)cnc2n1C/C=C/Cn1c(NC(=O)c2cc(C)nn2CC)nc2cc(C(N)=O)cc(OCCCO)c21` [Compound 126] yielded an EC50 below 1000 nM.
Under `CCn1nc(C)cc1C(=O)Nc1nc2cc(C(N)=O)cnc2n1C/C=C/Cn1c(NC(=O)c2cc(C)nn2CC)nc2cc(C(N)=O)cc(OCCCO)c21` [compound 94] stands below 1000 nM.
